Experiments:
Test in all cases: Kinase inhibitor library screening, PrestoBlue cell viability, 1 or 10 μM, 72 h
[1] = system: IGR37-XP cells (Vemurafenib-resistant); conditions: IGR37 XP, 72 h; for Cell viability in kinase inhibitor library screening, IGR37 XP, 1μΜ: in %
[2] = system: 501Mel-XP cells (Vemurafenib-resistant); conditions: 501Mel XP, 72 h; for Cell viability in kinase inhibitor library screening, 501Mel XP, 1μΜ / Cell viability in kinase inhibitor library screening, 501Mel XP, 10μΜ: in %
[3] = system: 501Mel cells (parental); conditions: 501Mel Parental, 72 h; for Cell viability in kinase inhibitor library screening, 501Mel Parental, 1μΜ / Cell viability in kinase inhibitor library screening, 501Mel Parental, 10μΜ: in %
Outline: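 Normalised to untreated controls, viability percentages came from PrestoBlue measured on a microplate reader following 72 h incubation with drug. Each line was assayed at least twice.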

[4] = system: IGR37-GP cells (Dabrafenib-resistant); conditions: IGR37 GP, 72 h; for Cell viability in kinase inhibitor library screening, IGR37 GP, 1μΜ: in %
[5] = system: 501Mel-GP cells (Dabrafenib-resistant); conditions: 501Mel GP, 72 h; for Cell viability in kinase inhibitor library screening, 501Mel GP, 1μΜ / Cell viability in kinase inhibitor library screening, 501Mel GP, 10μΜ: in %
[6] = system: A375 cells (parental); conditions: A375 Parental, 72 h; for Cell viability in kinase inhibitor library screening, A375 Parental, 10μΜ / cell viability (kinase inhibitor library screening): 10μΜ
[7] = system: IGR37 cells (parental); conditions: IGR37 Parental, 72 h
[8] = system: A375-XP cells (Vemurafenib-resistant); conditions: A375 XP, 72 h
[9] = system: A375-GP cells (Dabrafenib-resistant); conditions: A375 GP, 72 h

In the case of `Nc1nc(N)c2nc(-c3cccc(O)c3)cnc2n1` [TG 100713], the Cell viability in kinase inhibitor library screening, IGR37 XP, 10μΜ ([1]; 10μΜ) is reported as 21.2%, the “Cell viability in kinase inhibitor library screening, IGR37 XP, 1μΜ” value ([1]; 1μΜ) is reported as 97.8 and the “Cell viability in kinase inhibitor library screening, 501Mel XP, 1μΜ” value ([2]; 1μΜ) is reported as 90.7. The “Cell viability in kinase inhibitor library screening, 501Mel XP, 10μΜ” value ([2]; 10μΜ) was 26.9, the “Cell viability in kinase inhibitor library screening, 501Mel Parental, 1μΜ” value ([3]; 1μΜ) was 94.5 and the “Cell viability in kinase inhibitor library screening, 501Mel Parental, 10μΜ” value ([3]; 10μΜ) was 56.1. The Cell viability in kinase inhibitor library screening, IGR37 GP, 10μΜ ([4]; 10μΜ) was 58.8%, the “Cell viability in kinase inhibitor library screening, IGR37 GP, 1μΜ” value ([4]; 1μΜ) was 93.1 and the “Cell viability in kinase inhibitor library screening, 501Mel GP, 1μΜ” value ([5]; 1μΜ) was 98.4. The “Cell viability in kinase inhibitor library screening, 501Mel GP, 10μΜ” value ([5]; 10μΜ) was 36.6, the “Cell viability in kinase inhibitor library screening, A375 Parental, 10μΜ” value [6] was 43.8 and the “Cell viability in kinase inhibitor library screening, A375 Parental, 1μΜ” value [6] was 94.5. The “Cell viability in kinase inhibitor library screening, IGR37 Parental, 10μΜ” value ([7]; 10μΜ, in %) was 49.5, the “Cell viability in kinase inhibitor library screening, A375 XP, 1μΜ” value ([8]; 1μΜ) was 93.7 and the “Cell viability in kinase inhibitor library screening, A375 XP, 10μΜ” value ([8]; 10μΜ) was 40.5. For the same compound, the “Cell viability in kinase inhibitor library screening, A375 GP, 1μΜ” value ([9]; 1μΜ) was 94.1 and the “Cell viability in kinase inhibitor library screening, A375 GP, 10μΜ” value ([9]; 10μΜ) was 37.7.
`CCn1c(-c2nonc2N)nc2c(C#CC(C)(C)O)ncc(OC[C@H]3CCCNC3)c21` [GSK690693] was tested, and the “cell viability (kinase inhibitor library screening)” value ([1]; 1μΜ) was 94.0%, the “cell viability (kinase inhibitor library screening)” value ([1]; 10μΜ) was 18.7% and the “cell viability (kinase inhibitor library screening)” value ([2]; 1μΜ) was 66.4%. For the same compound, the “cell viability (kinase inhibitor library screening)” value ([2]; 10μΜ) was 17.0%, the “cell viability (kinase inhibitor library screening)” value ([3]; 1μΜ) was 87.0% and the “cell viability (kinase inhibitor library screening)” value ([3]; 10μΜ) was 43.2%. For the same compound, the “cell viability (kinase inhibitor library screening)” value ([4]; 1μΜ) was 93.2%, the “cell viability (kinase inhibitor library screening)” value ([4]; 10μΜ) was 65.9% and the “cell viability (kinase inhibitor library screening)” value ([5]; 1μΜ) was 87.1%. The “cell viability (kinase inhibitor library screening)” value ([5]; 10μΜ) was 33.9%, the “cell viability (kinase inhibitor library screening)” value [6] was 99.2% and the “cell viability (kinase inhibitor library screening)” value ([7]; 1μΜ) was 104.5%. The “cell viability (kinase inhibitor library screening)” value ([7]; 10μΜ) was 68.7%, the “cell viability (kinase inhibitor library screening)” value ([8]; 1μΜ) was 96.1% and the “cell viability (kinase inhibitor library screening)” value ([8]; 10μΜ) was 87.9%. The “cell viability (kinase inhibitor library screening)” value ([9]; 1μΜ) was 99.1% and the “cell viability (kinase inhibitor library screening)” value ([9]; 10μΜ) was 92.8%.
`COC(=O)Nc1ccc(-c2nc(N3CCOCC3)c3cnn(C4CCN(Cc5cccnc5)CC4)c3n2)cc1` [WYE-687] was tested, and the Cell viability in kinase inhibitor library screening, IGR37 XP, 10μΜ ([1]; 10μΜ) was 7%, the “Cell viability in kinase inhibitor library screening, IGR37 XP, 1μΜ” value ([1]; 1μΜ) was 62.5 and the “Cell viability in kinase inhibitor library screening, 501Mel XP, 1μΜ” value ([2]; 1μΜ) was 83.5. The “Cell viability in kinase inhibitor library screening, 501Mel XP, 10μΜ” value ([2]; 10μΜ) was 7.5, the “Cell viability in kinase inhibitor library screening, 501Mel Parental, 1μΜ” value ([3]; 1μΜ) was 65.3 and the “Cell viability in kinase inhibitor library screening, 501Mel Parental, 10μΜ” value ([3]; 10μΜ) was 9.6. For the same compound, the Cell viability in kinase inhibitor library screening, IGR37 GP, 10μΜ ([4]; 10μΜ) was 24.9%, the “Cell viability in kinase inhibitor library screening, IGR37 GP, 1μΜ” value ([4]; 1μΜ) was 77.7 and the “Cell viability in kinase inhibitor library screening, 501Mel GP, 1μΜ” value ([5]; 1μΜ) was 55.7. For the same compound, the “Cell viability in kinase inhibitor library screening, 501Mel GP, 10μΜ” value ([5]; 10μΜ) was 10.7, the “Cell viability in kinase inhibitor library screening, A375 Parental, 10μΜ” value [6] was 21.5 and the “Cell viability in kinase inhibitor library screening, A375 Parental, 1μΜ” value [6] was 74.1. The “Cell viability in kinase inhibitor library screening, IGR37 Parental, 1μΜ” value ([7]; 1μΜ, in %) was 75.9, the “Cell viability in kinase inhibitor library screening, IGR37 Parental, 10μΜ” value ([7]; 10μΜ, in %) was 26.2 and the “Cell viability in kinase inhibitor library screening, A375 XP, 1μΜ” value ([8]; 1μΜ) was 59.8. For the same compound, the “Cell viability in kinase inhibitor library screening, A375 XP, 10μΜ” value ([8]; 10μΜ) was 19.2, the “Cell viability in kinase inhibitor library screening, A375 GP, 1μΜ” value ([9]; 1μΜ) was 67.7 and the “Cell viability in kinase inhibitor library screening, A375 GP, 10μΜ” value ([9]; 10μΜ) was 19.9.
In the case of `CC(C)c1cnn2c(NCc3ccccc3)cc(NCCCCCCN)nc12.Cl` [BS-181 HCl], the “cell viability (kinase inhibitor library screening)” value ([1]; 1μΜ) is reported as 97.6%, the “cell viability (kinase inhibitor library screening)” value ([1]; 10μΜ) is reported as 59.8% and the “cell viability (kinase inhibitor library screening)” value ([2]; 1μΜ) is reported as 98.4%. The “cell viability (kinase inhibitor library screening)” value ([2]; 10μΜ) was 55.9%, the “cell viability (kinase inhibitor library screening)” value ([3]; 1μΜ) was 97.6% and the “cell viability (kinase inhibitor library screening)” value ([3]; 10μΜ) was 87.4%. The “cell viability (kinase inhibitor library screening)” value ([4]; 1μΜ) was 92.7%, the “cell viability (kinase inhibitor library screening)” value ([4]; 10μΜ) was 81.4% and the “cell viability (kinase inhibitor library screening)” value ([5]; 1μΜ) was 108.6%. For the same compound, the “cell viability (kinase inhibitor library screening)” value ([5]; 10μΜ) was 87.7%, the “cell viability (kinase inhibitor library screening)” value [6] was 91.6% and the “cell viability (kinase inhibitor library screening)” value ([7]; 1μΜ) was 98.6%. For the same compound, the “cell viability (kinase inhibitor library screening)” value ([8]; 1μΜ) was 112.1%, the “cell viability (kinase inhibitor library screening)” value ([8]; 10μΜ) was 92.4% and the “cell viability (kinase inhibitor library screening)” value ([9]; 1μΜ) was 105.9%. The “cell viability (kinase inhibitor library screening)” value ([9]; 10μΜ) was 84.9%.

Reference: paper PMC6364417, “Kinase inhibitor library screening identifies synergistic drug combinations effective in sensitive and resistant melanoma cells” (Journal of Experimental & Clinical Cancer Research : CR, 2019)
